Results on eleven compounds are retold here after ChEMBL document CHEMBL1201862, “PubChem BioAssay data set” (2004).

Among the test systems are LOX IMVI; MCF7; MDA-N; CAKI-1; MDA-MB-231; Malme-3M; NCI-H23; SF-268; COLO 205; NCI-H460; A498; SK-MEL-5; HCT-15; A549; MDA-MB-435; K562; OVCAR-5; Hs-578T; IGROV-1; HL-60.
Test in all cases: NCI anticancer screen, dose series, 48 h

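Where inhibition never reached the appropriate level, the endpoint shown equals the highest concentration tested. Otherwise, values were interpolated linearly from a five-concentration, 48-hour dose response in 96-well plates. Here, GI50 denotes the concentration required for 50% inhibition of growth.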 Active and inactive are the calls of the source. No stated cut-off is given here; in the data, active = GI50 up to about 1.1 µM and inactive = higher. A value given as a limit tells only on which side of the number the result lay.

As to `O=C1C(c2c(O)[nH]c3ccc([N+](=O)[O-])cc23)=Nc2ccccc21`, the GI50 in the experiment with LOX IMVI was > 100 µM (inactive); in the experiment with MCF7 it was 57.1 µM (inactive); with MDA-N, > 100 µM (inactive); in the experiment on CAKI-1, > 100 µM (inactive); with MDA-MB-231 it was 31.7 µM (inactive); in the experiment with Malme-3M, > 100 µM (inactive). Besides, the GI50 with NCI-H23 is > 100 µM (inactive); with SF-268, > 100 µM (inactive); with COLO 205, > 100 µM (inactive); in the experiment with NCI-H460, > 100 µM (inactive); in the experiment on A498, 98.2 µM (inactive); in the experiment on SK-MEL-5, > 100 µM (inactive). Besides, the GI50 with HCT-15 is more than 100 µM; in the experiment on A549 it was > 100 µM (inactive); with MDA-MB-435, > 100 µM (inactive); in the experiment with K562, > 100 µM (inactive); with OVCAR-5, > 100 µM (inactive); with Hs-578T, 56.9 µM (inactive). Moreover, the GI50 in the experiment with IGROV-1 was 10 µM (inactive).
As for `Brc1ccc(-c2ccc(-c3ccc(-c4ccc(Br)s4)s3)s2)s1`, the GI50 in the experiment with LOX IMVI, with MCF7, with MDA-N, in the experiment with CAKI-1, with MDA-MB-231 and in the experiment on NCI-H23 was > 100 µM (inactive) in each case. Moreover, the GI50 with SF-268, with COLO 205, in the experiment on NCI-H460, with HL-60, in the experiment on A498 and in the experiment with SK-MEL-5 was > 100 µM (inactive) each time. Moreover, the GI50 in the experiment on HCT-15 is more than 100 µM; with A549, > 100 µM (inactive); with MDA-MB-435, > 100 µM (inactive); in the experiment on K562 it was > 100 µM (inactive); with OVCAR-5 it was > 100 µM (inactive); in the experiment with Hs-578T, > 100 µM (inactive). For the same compound, the GI50 in the experiment on IGROV-1 was > 100 µM (inactive).
Consider `CS(=O)(=O)c1ccc(/N=C/C=C/Nc2ccc(S(C)(=O)=O)cc2)cc1`, for which the GI50 in the experiment with MCF7, with MDA-N, in the experiment with CAKI-1, in the experiment on MDA-MB-231, in the experiment with Malme-3M and in the experiment with NCI-H23 was > 100 µM (inactive) each time. For the same compound, the GI50 in the experiment with SF-268, in the experiment on COLO 205, in the experiment with NCI-H460, in the experiment on HL-60, in the experiment on A498 and in the experiment with SK-MEL-5 was > 100 µM (inactive) each time. For the same compound, the GI50 in the experiment with HCT-15 was more than 100 µM; in the experiment with A549, > 100 µM (inactive); with MDA-MB-435, > 100 µM (inactive); with K562, > 100 µM (inactive); with OVCAR-5, > 100 µM (inactive); in the experiment with Hs-578T it was > 100 µM (inactive). In the experiment with IGROV-1, the GI50 is > 100 µM (inactive).
Turning to `Cn1c(=O)n2n(c1=O)Cc1cccc3cccc(c13)C2`, the GI50 with LOX IMVI, with MCF7, in the experiment on MDA-N, in the experiment on CAKI-1, in the experiment with MDA-MB-231 and in the experiment on Malme-3M was > 100 µM (inactive) throughout. Moreover, the GI50 in the experiment with NCI-H23 was > 100 µM (inactive); with SF-268 it was > 100 µM (inactive); in the experiment on COLO 205 it was > 100 µM (inactive); in the experiment on NCI-H460, > 100 µM (inactive); in the experiment on HL-60 it was 1.82 µM (inactive); in the experiment on A498, > 100 µM (inactive). The GI50 was > 100 µM (inactive) in the experiment on SK-MEL-5; more than 100 µM in the experiment with HCT-15; > 100 µM (inactive) in the experiment on A549; > 100 µM (inactive) in the experiment on MDA-MB-435; > 100 µM (inactive) with K562; > 100 µM (inactive) with OVCAR-5. In addition, the GI50 in the experiment with Hs-578T is > 100 µM (inactive).
As to `N#Cc1nc(/C=C/c2cccs2)oc1N`, the GI50 in the experiment with LOX IMVI was > 100 µM (inactive); in the experiment on MCF7, 99.1 µM (inactive); with MDA-N it was > 100 µM (inactive); with CAKI-1, 65.3 µM (inactive); in the experiment with MDA-MB-231, > 100 µM (inactive); in the experiment with SF-268 it was > 100 µM (inactive). In addition, the GI50 in the experiment on HL-60 is 12.6 µM (inactive); in the experiment with A498, > 100 µM (inactive); in the experiment with SK-MEL-5, 51.1 µM (inactive); with HCT-15, 94.4 µM; in the experiment with A549, > 100 µM (inactive); in the experiment with MDA-MB-435, > 100 µM (inactive). Further, the GI50 with K562 was 82.4 µM (inactive); in the experiment with OVCAR-5, > 100 µM (inactive); in the experiment on Hs-578T, > 100 µM (inactive); with IGROV-1, 65.9 µM (inactive).
`CCN1C(=O)/C(=C2\SC(c3ccccc3)(c3ccccc3)c3ccccc32)SC1=S`: the GI50 in the experiment with LOX IMVI is 38.6 µM (inactive); in the experiment on MCF7, > 100 µM (inactive); in the experiment on MDA-N, > 100 µM (inactive); in the experiment on MDA-MB-231, 72.3 µM (inactive); with Malme-3M, > 100 µM (inactive); in the experiment on NCI-H23 it was > 100 µM (inactive). In addition, the GI50 with SF-268 was 36.3 µM (inactive); in the experiment with COLO 205 it was 64.4 µM (inactive); with NCI-H460, > 100 µM (inactive); with A498, 46 µM (inactive); in the experiment on SK-MEL-5 it was > 100 µM (inactive); with HCT-15, more than 100 µM. Also, the GI50 in the experiment on A549 is 87.9 µM (inactive); with MDA-MB-435, > 100 µM (inactive); with K562, > 100 µM (inactive); in the experiment on OVCAR-5, > 100 µM (inactive); with Hs-578T, 32.2 µM (inactive); with IGROV-1, 70.3 µM (inactive).
`CC(=O)OC[C@]1(C(=O)C(O)c2ccoc2)[C@H](C)CC[C@@]23COC(=O)C2=CCC[C@@H]31` (stereo partly drawn): the GI50 with LOX IMVI, in the experiment with MCF7, with MDA-N, in the experiment on CAKI-1, in the experiment on MDA-MB-231 and in the experiment with NCI-H23 was > 10 µM (inactive) each time. In addition, the GI50 in the experiment with SF-268, with COLO 205, in the experiment with NCI-H460, in the experiment with HL-60, in the experiment on A498 and in the experiment on SK-MEL-5 was > 10 µM (inactive) throughout. In addition, the GI50 in the experiment with HCT-15 was more than 10 µM; in the experiment with A549, > 10 µM (inactive); with MDA-MB-435, > 10 µM (inactive); with OVCAR-5 it was > 10 µM (inactive); in the experiment on Hs-578T, > 10 µM (inactive); in the experiment on IGROV-1, > 10 µM (inactive).
For the compound `COC(=O)C1C2CCCN2OC1(C)CO` (stereo not drawn), the GI50 with LOX IMVI, with MCF7, with MDA-N, with CAKI-1, with MDA-MB-231 and with NCI-H23 was > 100 µM (inactive) each time. The GI50 in the experiment on SF-268, in the experiment with COLO 205, in the experiment on NCI-H460, in the experiment with HL-60, in the experiment with A498 and in the experiment on SK-MEL-5 was > 100 µM (inactive) each time. Besides, the GI50 with HCT-15 is more than 100 µM; with A549, > 100 µM (inactive); in the experiment on MDA-MB-435, > 100 µM (inactive); in the experiment on K562 it was > 100 µM (inactive); in the experiment on OVCAR-5, > 100 µM (inactive); in the experiment with Hs-578T, > 100 µM (inactive). Also, the GI50 in the experiment on IGROV-1 is > 100 µM (inactive).
Consider `CC1C2CC(CC2N)C1(C)C` (stereo not drawn), for which the GI50 with MCF7, in the experiment with MDA-N, in the experiment with CAKI-1, in the experiment on MDA-MB-231, in the experiment with Malme-3M and with NCI-H23 was > 100 µM (inactive) throughout. Moreover, the GI50 in the experiment on SF-268, with COLO 205, in the experiment on NCI-H460, in the experiment on HL-60, in the experiment on A498 and in the experiment on SK-MEL-5 was > 100 µM (inactive) throughout. In addition, the GI50 in the experiment with A549, in the experiment on MDA-MB-435, in the experiment with K562, with OVCAR-5, in the experiment with Hs-578T and in the experiment on IGROV-1 was > 100 µM (inactive) throughout.
For the compound `CCOC(=O)C1(Cc2ccccc2)Cc2cc3c(cc2C1=O)CCC3` (stereo not drawn), the GI50 with LOX IMVI, with MCF7, in the experiment on MDA-N, in the experiment on MDA-MB-231, in the experiment with Malme-3M and in the experiment with NCI-H23 was > 100 µM (inactive) in each case. The GI50 in the experiment on SF-268, with COLO 205, in the experiment on NCI-H460, in the experiment on HL-60, with A498 and in the experiment with SK-MEL-5 was > 100 µM (inactive) in each case. The GI50 was more than 100 µM in the experiment on HCT-15; > 100 µM (inactive) in the experiment with A549; > 100 µM (inactive) with MDA-MB-435; > 100 µM (inactive) in the experiment with K562; > 100 µM (inactive) with OVCAR-5; > 100 µM (inactive) in the experiment on Hs-578T. In addition, the GI50 in the experiment with IGROV-1 is > 100 µM (inactive).
With `O=C(O)Cc1ccc2nc(COC(=O)c3ccccc3)sc2c1`, the GI50 with LOX IMVI, in the experiment on MCF7, in the experiment with MDA-N, in the experiment on CAKI-1, with MDA-MB-231 and with Malme-3M was > 100 µM (inactive) in each case. Besides, the GI50 in the experiment on NCI-H23, in the experiment with SF-268, in the experiment with COLO 205, with NCI-H460, with A498 and in the experiment with SK-MEL-5 was > 100 µM (inactive) throughout. Also, the GI50 in the experiment with HCT-15 was more than 100 µM; in the experiment with A549, > 100 µM (inactive); in the experiment with MDA-MB-435, > 100 µM (inactive); in the experiment on K562, > 100 µM (inactive); with OVCAR-5, > 100 µM (inactive); in the experiment with Hs-578T it was > 100 µM (inactive). Besides, the GI50 in the experiment with IGROV-1 was > 100 µM (inactive).
